Measurements reported in PubChem BioAssay AID190 (DTP/NCI, 2004).
Values joined by “and” are separate entries in the source; they are usually repeats but may differ in a detail not shown here. Equal entries are not always repeated. Inconclusive results and toxic doses are left out. Numbered stars: 1 amine (or outer) side, 2 acyl side, 3 side chain; on linkers, the order of the positions; unused ones are H or OH. Bridge positions count the residues as written; N and C are the ends. Square brackets hold non-standard residues; d marks the D form. Peptide text beside a SMILES is read from it. I, II: the chains in the order shown. Actinocin(9to1) = Cc1c2oc3c(C)ccc(C(=O)[*:1])c3nc-2c(C(=O)[*:2])c(N)c1=O; aThr = C[C@H](O)[C@H](N)C(=O)O; NMeV = CN[C@H](C(=O)O)C(C)C; Sar = CNCC(=O)O

System: AKR/Lw mice, AKR lymphoma ip, median survival T/C
Experiment: NCI In Vivo Anticancer Drug Screen. Data for tumor model Lymphoma AKR (Transplanted) (intraperitoneal) in AKR/Lw mice
Conditions: endpoint: median survival time, higher = longer survival
Procedure: The antitumor activity of compounds was measured in mice bearing transplantable tumors. Survival or tumor size were measured and the results are expressed as the measurement made in the treated group (T) divided by the measurement made in the vehicle treated control group (C). The tumor model used in this assay is Lymphoma AKR (Transplanted) (intraperitoneal) in AKR/Lw mice

CN(Cc1cnc2nc(N)nc(N)c2n1)c1ccc(C(=O)N[C@@H](CCC(=O)O)C(=O)O)cc1
T/C (dose: 0.15 mg/kg/injection, schedule: Q04DX003 (ip), vehicle: saline): 100 % of control
T/C (dose: 0.25 mg/kg/injection, schedule: Q01DX001 (ip), vehicle: saline): 106 % of control
T/C (dose: 0.25 mg/kg/injection, schedule: Q01DX009 (ip), vehicle: saline): 112 % of control
T/C (dose: 0.25 mg/kg/injection, schedule: Q01DX015 (ip), vehicle: saline): 114 % of control and 116 % of control
T/C (dose: 0.3 mg/kg/injection, schedule: Q04DX003 (ip), vehicle: saline): 111 % of control
T/C (dose: 0.5 mg/kg/injection, schedule: Q01DX001 (ip), vehicle: saline): 109 % of control and 117 % of control
T/C (dose: 0.5 mg/kg/injection, schedule: Q04DX008 (ip), vehicle: saline): 116 % of control
T/C (dose: 0.6 mg/kg/injection, schedule: Q04DX003 (ip), vehicle: saline): 98 % of control
T/C (dose: 0.75 mg/kg/injection, schedule: Q01DX009 (ip), vehicle: saline): 112 % of control
T/C (dose: 0.75 mg/kg/injection, schedule: Q04DX003 (ip), vehicle: saline): 87 % of control and 93 % of control and 111 % of control
T/C (dose: 1.0 mg/kg/injection, schedule: Q01DX001 (ip), vehicle: saline): 109 % of control and 115 % of control
T/C (dose: 1.2 mg/kg/injection, schedule: Q01DX009 (ip), vehicle: saline): 91 % of control
T/C (dose: 1.5 mg/kg/injection, schedule: Q01DX001 (ip), vehicle: saline): 89 % of control and 102 % of control
T/C (dose: 1.5 mg/kg/injection, schedule: Q01DX015 (ip), vehicle: saline): 197 % of control
T/C (dose: 2.0 mg/kg/injection, schedule: Q01DX001 (ip), vehicle: saline): 106 % of control and 115 % of control
T/C (dose: 2.0 mg/kg/injection, schedule: Q04DX003 (ip), vehicle: saline): 95 % of control
T/C (dose: 2.5 mg/kg/injection, schedule: Q01DX009 (ip), vehicle: saline): 87 % of control and 91 % of control
T/C (dose: 3.0 mg/kg/injection, schedule: Q01DX001 (ip), vehicle: saline): 100 % of control and 114 % of control and 116 % of control
T/C (dose: 4.0 mg/kg/injection, schedule: Q01DX001 (ip), vehicle: saline): 116 % of control
T/C (dose: 4.0 mg/kg/injection, schedule: Q01DX009 (ip), vehicle: saline): 94 % of control
T/C (dose: 4.0 mg/kg/injection, schedule: Q04DX003 (ip), vehicle: saline): 109 % of control
T/C (dose: 4.0 mg/kg/injection, schedule: Q04DX008 (ip), vehicle: saline): 113 % of control
T/C (dose: 5.0 mg/kg/injection, schedule: Q01DX001 (ip), vehicle: saline): 114 % of control
T/C (dose: 5.0 mg/kg/injection, schedule: Q01DX009 (ip), vehicle: saline): 88 % of control
T/C (dose: 10.0 mg/kg/injection, schedule: Q01DX001 (ip), vehicle: saline): 102 % of control and 104 % of control
T/C (dose: 11.0 mg/kg/injection, schedule: Q04DX008 (ip), vehicle: saline): 123 % of control
T/C (dose: 12.0 mg/kg/injection, schedule: Q01DX001 (ip), vehicle: saline): 107 % of control and 111 % of control
T/C (dose: 12.0 mg/kg/injection, schedule: Q04DX003 (ip), vehicle: saline): 93 % of control and 100 % of control
T/C (dose: 16.0 mg/kg/injection, schedule: Q04DX004 (ip), vehicle: saline): 93 % of control
T/C (dose: 20.0 mg/kg/injection, schedule: Q01DX001 (ip), vehicle: saline): 102 % of control
T/C (dose: 24.0 mg/kg/injection, schedule: Q04DX003 (ip), vehicle: saline): 94 % of control
T/C (dose: 24.0 mg/kg/injection, schedule: Q04DX004 (ip), vehicle: saline): 115 % of control
T/C (dose: 40.0 mg/kg/injection, schedule: Q01DX001 (ip), vehicle: saline): 108 % of control

CC(=O)CC(=O)Nc1ccc([N+](=O)[O-])cc1
T/C (dose: 50.0 mg/kg/injection, schedule: Q01DX001 (ip), vehicle: other): 100 % of control
T/C (dose: 100.0 mg/kg/injection, schedule: Q01DX001 (ip), vehicle: other): 98 % of control
T/C (dose: 100.0 mg/kg/injection, schedule: Q01DX001 (ip), vehicle: saline with Tween-80): 96 % of control
T/C (dose: 200.0 mg/kg/injection, schedule: Q01DX001 (ip), vehicle: other): 94 % of control
T/C (dose: 400.0 mg/kg/injection, schedule: Q01DX001 (ip), vehicle: other): 86 % of control
T/C (dose: 400.0 mg/kg/injection, schedule: Q01DX001 (ip), vehicle: saline with Tween-80): 92 % of control

Cc1c2oc3c(C)ccc(C(=O)N[C@@H]4C(=O)N[C@H](C(C)C)C(=O)N5CCC[C@H]5C(=O)N(C)CC(=O)N(C)[C@@H](C(C)C)C(=O)O[C@H]4C)c3nc-2c(C(=O)N[C@@H]2C(=O)N[C@H](C(C)C)C(=O)N3CCC[C@H]3C(=O)N(C)CC(=O)N(C)[C@@H](C(C)C)C(=O)O[C@H]2C)c(N)c1=O (I: [aThr][dV]P[Sar][NMeV] / II: [aThr][dV]P[Sar][NMeV]; ester I:1-I:C, II:1-II:C; linker I:N-II:N via Actinocin(9to1))
T/C (dose: 0.05 mg/kg/injection, schedule: Q01DX001 (ip), vehicle: saline): 110 % of control
T/C (dose: 0.1 mg/kg/injection, schedule: Q01DX001 (ip), vehicle: saline): 117 % of control
T/C (dose: 0.2 mg/kg/injection, schedule: Q01DX001 (ip), vehicle: saline): 112 % of control
T/C (dose: 1.0 micrograms/kg/injection, schedule: Q01DX015 (ip), vehicle: saline): 94 % of control
T/C (dose: 2.0 micrograms/kg/injection, schedule: Q01DX015 (ip), vehicle: saline): 108 % of control
T/C (dose: 4.0 micrograms/kg/injection, schedule: Q01DX015 (ip), vehicle: saline): 105 % of control
T/C (dose: 5.0 micrograms/kg/injection, schedule: Q01DX010 (ip), vehicle: saline): 109 % of control
T/C (dose: 6.0 micrograms/kg/injection, schedule: Q01DX015 (ip), vehicle: saline): 105 % of control
T/C (dose: 9.0 micrograms/kg/injection, schedule: Q01DX015 (ip), vehicle: saline): 111 % of control
T/C (dose: 10.0 micrograms/kg/injection, schedule: Q01DX010 (ip), vehicle: saline): 119 % of control
T/C (dose: 13.0 micrograms/kg/injection, schedule: Q01DX015 (ip), vehicle: saline): 94 % of control
T/C (dose: 20.0 micrograms/kg/injection, schedule: Q01DX015 (ip), vehicle: saline): 119 % of control

COC(=O)C1CC2C(Cl)=C(Cl)C1(Cl)C2(Cl)Cl (configuration not stated)
T/C (dose: 25.0 mg/kg/injection, schedule: Q04DX003 (ip), vehicle: saline): 108 % of control
T/C (dose: 50.0 mg/kg/injection, schedule: Q04DX003 (ip), vehicle: saline): 100 % of control
T/C (dose: 100.0 mg/kg/injection, schedule: Q01DX001 (ip), vehicle: saline): 96 % of control
T/C (dose: 100.0 mg/kg/injection, schedule: Q04DX003 (ip), vehicle: saline): 95 % of control
T/C (dose: 200.0 mg/kg/injection, schedule: Q01DX001 (ip), vehicle: saline): 105 % of control
T/C (dose: 400.0 mg/kg/injection, schedule: Q01DX001 (ip), vehicle: saline): 103 % of control
